Key:
S. mitis = test: Skin microbiome profiling, benzoyl peroxide versus no benzoyl peroxide; assay type: in vivo; details: benzoyl peroxide applied versus no benzoyl peroxide, FIG. 3
From the text: (§1) Described herein are findings of a study of individuals comprising preadolescent females with acne, and changes in the microbiomes of the individuals with the use of benzoyl peroxide wash. Flora was taken from different areas of the faces of the individuals and studied for sensitivity to benzoyl peroxide. Inclusion criteria of the study for which results are provided herein include: • 1. Minimum of 6 acne lesions present. • 2. No prior use of prescription acne product. • 3. No prior use of over-the-counter benzoyl peroxide anti-acne agent. • 4. Ages: 7-12 • 5. Sex: Female Exclusion criteria of the study for which results are provided herein include: • 1. Significant active skin conditions on the face other than acne vulgaris (may include atopic dermatitis, psoriasis, or others). • 2. Use of oral or parenteral antibiotics within 3 months prior to the study. Sites from which samples were taken along with abbreviations for each include: • RA or RAL: Retroauricular Behind Ear • CH or CHN: Chin • CK or CKN: Cheek • FH or FHN: Forehead • AN or ANN: Ala Nasal [Outside of Nose] • CO or CON: Comedone In some embodiments, the skin microbiome of an individual subject is evaluated. Individual microbiomes vary greatly across subjects and regions of the skin. […] Samples were taken from locations on the heads of the individuals including behind the ear, chin, cheek, forehead, and outside the nose. […]

skin microbiome = test: Site specific and overall effect of benzoyl peroxide on the skin microbiome; assay type: in vivo, human
From the text: as §1

C2 P. acnes strain = test: P. acnes strain profiling before and after benzoyl peroxide treatment; assay type: in vivo, Propionibacterium acnes; details: after benzoyl peroxide treatment, FIG. 39
Protocol: A group of subjects with P. acnes populations were treated with benzoyl peroxide and divided into 3 cohorts based on the effectiveness of the treatment. Subjects in the “Decrease Cohort” experienced a decrease in P. acnes populations, subjects in the “Increase Cohort” experienced an increase in P. acnes populations, and the “Flat Cohort” experienced non-measureable variance in P. acnes populations. […] Shown is the mean proportion of P. acnes across “Increase”, “Decrease”, and “Flat” cohort. […] The Al P. acnes across is differentiated between “Increase” and “Decrease” cohort. […] The K4 & C3 P. acnes is differentiated between “Increase” and “Decrease” cohort. […] The F4 & D1 P. acnes is differentiated between “Increase” and “Decrease” cohort. […] […] The K4 and A2 P. acnes strains are more prevalent in “Decrease” cohort while the K1 strain is more prevalent in “Increase” cohort.

P. acnes = test: Skin microbiome profiling, benzoyl peroxide versus no benzoyl peroxide; assay type: in vivo, Propionibacterium acnes; details: benzoyl peroxide applied versus no benzoyl peroxide, FIG. 3
From the text: as §1

O=C(OOC(=O)c1ccccc1)c1ccccc1 [benzoyl peroxide]
S. mitis relative proportion in the microbiome (S. mitis): increased
Skin site impacted the most by benzoyl peroxide (skin microbiome; among all sites tested, from the site specific prediction models of Table 2): cheek gets impacted the most
Impact on overall microbiome diversity (skin microbiome; benzoyl peroxide treatment): does not impact the overall microbiome diversity
Prevalence of the C2 P. acnes strain after treatment (C2 P. acnes strain): becomes more prevalent
P. acnes levels within the microbiome (P. acnes): decreased

Reference: US20190292577A1, “COMPOSITIONS AND METHOD FOR THE TREATMENT OF ACNE” (ProdermIQ, Inc., priority 2018, published 2019)
